Source: patent US11046680B1, “Heteroaryl-substituted triazoles as APJ receptor agonists” (priority 2016, dated 2021)

molecular target: human APJ receptor (Homo sapiens (Human), UniProt P35414); experiment: biochemical; format: biochemical; conditions: [35S]GTPγS binding, CHO membranes expressing human APJ receptor; read-out: Activity hAPJ SPA EC50 IP
Summary of the method: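 GTPγS binding on membranes from CHO cells stably expressing FLAG-tagged human APJ, with optimized GDP, MgCl2 and NaCl; incubated 90 min at RT before imaging read-out.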

human APJ receptor, sequence (P35414 whole entry): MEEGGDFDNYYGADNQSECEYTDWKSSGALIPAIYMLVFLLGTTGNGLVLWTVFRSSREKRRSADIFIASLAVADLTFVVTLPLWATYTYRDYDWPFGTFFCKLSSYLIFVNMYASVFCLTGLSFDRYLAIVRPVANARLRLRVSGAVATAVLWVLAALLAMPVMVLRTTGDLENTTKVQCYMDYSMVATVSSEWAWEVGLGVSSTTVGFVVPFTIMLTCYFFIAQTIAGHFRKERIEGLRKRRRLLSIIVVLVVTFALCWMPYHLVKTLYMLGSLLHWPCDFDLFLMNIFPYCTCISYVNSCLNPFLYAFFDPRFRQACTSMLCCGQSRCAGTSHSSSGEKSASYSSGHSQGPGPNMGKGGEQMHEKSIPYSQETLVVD

Compared with `COc1ncnc(OC)c1-n1c(NS(=O)(=O)[C@@H](C)[C@@H](OC(C)C)c2cnc(C)cn2)nnc1-c1ccn(C)n1` [Example 461.0, (1S,2S)-N-(4-(4,6-dimethoxy-5-pyrimidinyl)-5-(1-methyl-1H-pyrazol-3-yl)-4H-1,2,4-triazol-3-yl)-1-(5-methyl-2-pyrazinyl)-1-(2-propanyloxy)-2-propanesulfonamide], `COc1ccc(S(C)(=O)=O)cc1-n1c(NS(=O)(=O)CCc2ccc(Cl)cc2)nnc1-c1cccs1` [Example 312.0, 2-(4-Chlorophenyl)-N-(4-(2-methoxy-5-(methylsulfonyl)phenyl)-5-(thiophen-2-yl)-4H-1,2,4-triazol-3-yl)ethanesulfonamide] is 8.4-fold higher in EC50: 9 nM for the first, 76 nM for the second. The first is the more potent here.

Going from `COc1cnc([C@@H](C)[C@H](C)S(=O)(=O)Nc2nnc(-c3ccn(C)n3)n2-c2c(OC)cccc2OC)nc1` [Example 295.0, (2S,3R)-N-(4-(2,6-dimethoxyphenyl)-5-(1-methyl-1H-pyrazol-3-yl)-4H-1,2,4-triazol-3-yl)-3-(5-methoxy-2-pyrimidinyl)-2-butanesulfonamide] to `COc1cccc(OC)c1-n1c(NS(=O)(=O)[C@H](C)[C@@H](C)c2cnc(C)cn2)nnc1-c1ccn(C)n1` [Example 281.0, (2R,3S)-N-(4-(2,6-dimethoxyphenyl)-5-(1-methyl-1H-pyrazol-3-yl)-4H-1,2,4-triazol-3-yl)-3-(5-methyl-2-pyrazinyl)-2-butanesulfonamide], the EC50 rises from 0.4 nM to 84 nM (210-fold). The first is the more potent here.

Compared with `COc1cccc(OC)c1-n1c(NS(=O)(=O)[C@@H](C)[C@H](OC)c2ncc(Cl)cn2)nnc1-c1c[nH]c2ncccc12` [Example 419.0, (1R,2S)-1-(5-chloropyrimidin-2-yl)-N-(4-(2,6-dimethoxyphenyl)-5-(1H-pyrrolo[2,3-b]pyridin-3-yl)-4H-1,2,4-triazol-3-yl)-1-methoxypropane-2-sulfonamide], `COc1cccc(OC)c1-n1c(NS(=O)(=O)CCc2ccc(Cl)cc2)nnc1-c1csc(C)n1` [Example 149.0, 2-(4-chlorophenyl)-N-(4-(2,6-dimethoxyphenyl)-5-(2-methylthiazol-4-yl)-4H-1,2,4-triazol-3-yl)ethanesulfonamide] is 11-fold higher in EC50: 2.4 nM for the first, 27 nM for the second. The first is the more potent here.

Going from `COc1cccc(OC)c1-n1c(NS(=O)(=O)C[C@H](O)c2ccc(Cl)cc2)nnc1-c1ccn(C)n1` (single isomer, unassigned) [Example 375.0, (R)-2-(4-Chlorophenyl)-N-(4-(2,6-dimethoxyphenyl)-5-(1-methyl-1H-pyrazol-3-yl)-4H-1,2,4-triazol-3-yl)-2-hydroxyethanesulfonamide or (R)-2-(4-chlorophenyl)-N-(4-(2,6-dimethoxyphenyl)-5-(1-methyl-1H-pyrazol-3-yl)-4H-1,2,4-triazol-3-yl)-2-hydroxyethanesulfonamide] to `COc1cccc(OC)c1-n1c(NS(=O)(=O)[C@@H](C)[C@H](OC)c2ncc(C)cn2)nnc1-c1n[nH]c2ccc(F)cc12` [Example 437.0], the EC50 rises from 5.9 nM to 190 nM (32-fold). The first is the more potent here.

Going from `COc1ncnc(OC)c1-n1c(NS(=O)(=O)[C@@H](C)[C@@H](OC(C)C)c2ncc(Cl)cn2)nnc1-c1ccn(C)n1` [Example 456.0, (1S,2S)-1-(5-chloro-2-pyrimidinyl)-N-(4-(4,6-dimethoxy-5-pyrimidinyl)-5-(1-methyl-1H-pyrazol-3-yl)-4H-1,2,4-triazol-3-yl)-1-(1-methylethoxy)-2-propanesulfonamide] to `Cc1cnc([C@@H](C)[C@H](C)S(=O)(=O)Nc2nnc(-c3ccn(C)n3)n2-c2c(F)cccc2F)nc1` [Example 226.0, (2S,3R)-N-(4-(2,6-difluorophenyl)-5-(1-methyl-1H-pyrazol-3-yl)-4H-1,2,4-triazol-3-yl)-3-(5-methyl-2-pyrimidinyl)-2-butanesulfonamide], the EC50 rises from 0.6 nM to 11 nM (18-fold).

First: COc1cccc(OC)c1-n1c(NS(=O)(=O)[C@H](C)Cc2ncc(F)cn2)nnc1-c1nc(C2CC2)cs1 (single isomer, unassigned) [Example 159.0, (R)-N-(5-(4-cyclopropylthiazol-2-yl)-4-(2,6-dimethoxyphenyl)-4H-1,2,4-triazol-3-yl)-1-(5-fluoropyrimidin-2-yl)propane-2-sulfonamide or (S)-N-(5-(4-cyclopropylthiazol-2-yl)-4-(2,6-dimethoxyphenyl)-4H-1,2,4-triazol-3-yl)-1-(5-fluoropyrimidin-2-yl)propane-2-sulfonamide]
Second: COc1ccc(C#N)cc1-n1c(NS(=O)(=O)CCc2ccc(Cl)cc2)nnc1-c1cccs1 [Example 247.0, 2-(4-chlorophenyl)-N-(4-(5-cyano-2-methoxyphenyl)-5-(thiophen-2-yl)-4H-1,2,4-triazol-3-yl)ethanesulfonamide]
The EC50 of the first is 270-fold lower: 0.61 nM for the first, 166 nM for the second.

Compared with `CCc1onc(-c2nnc(NS(=O)(=O)[C@@H](C)[C@H](OC)c3ncc(Cl)cn3)n2-c2c(OC)cccc2OC)c1C` [Example 519.0], `COc1cccc(OC)c1-n1c(NS(=O)(=O)[C@@H](C)[C@H](OC)c2ncc(C)cn2)nnc1-c1ccn(C)n1` [Example 200.0, (1R,2S)-N-(4-(2,6-dimethoxyphenyl)-5-(1-methyl-1H-pyrazol-3-yl)-4H-1,2,4-triazol-3-yl)-1-methoxy-1-(5-methyl-2-pyrimidinyl)-2-propanesulfonamide] is 2.5-fold higher in EC50: 0.32 nM for the first, 0.79 nM for the second. The first is the more potent here.

Going from `COc1cccc(OC)c1-n1c(NS(=O)(=O)CCC(=O)N2CCCC2)nnc1-c1cccs1` [Example 361.0, N-(4-(2,6-Dimethoxyphenyl)-5-(thiophen-2-yl)-4H-1,2,4-triazol-3-yl)-3-oxo-3-(pyrrolidin-1-yl)propane-1-sulfonamide] to `Cc1cnc([C@H](OC(C)C)[C@H](C)S(=O)(=O)Nc2nnc(-c3ccn(C)n3)n2-c2c(F)cccc2F)nc1` [Example 227.0, (1S,2S)-N-(4-(2,6-difluorophenyl)-5-(1-methyl-1H-pyrazol-3-yl)-4H-1,2,4-triazol-3-yl)-1-(1-methylethoxy)-1-(5-methyl-2-pyrimidinyl)-2-propanesulfonamide], the EC50 falls from 34 nM to 1.6 nM (21-fold). The second is the more potent here.

First: COc1cccc(OC)c1-n1c(NS(=O)(=O)[C@@H](C)[C@H](C)c2ncc(Cl)cn2)nnc1-c1cc(C)on1 [Example 498.0, (2S,3R)-3-(5-chloropyrimidin-2-yl)-N-(4-(2,6-dimethoxyphenyl)-5-(5-methylisoxazol-3-yl)-4H-1,2,4-triazol-3-yl)butane-2-sulfonamide]
Second: COc1cccc(OC)c1-n1c(NS(=O)(=O)CCc2ccc(Cl)cc2)nnc1-c1ccsc1 [Example 141.0, 2-(4-chlorophenyl)-N-(4-(2,6-dimethoxyphenyl)-5-(thiophen-3-yl)-4H-1,2,4-triazol-3-yl)ethanesulfonamide]
The EC50 of the first is 21-fold lower: 0.44 nM for the first, 9.4 nM for the second.

Going from `O=S(=O)(CCc1ccc(Cl)cc1)Nc1nnc(-c2cccs2)n1-c1ccccc1C(F)(F)F` [Example 357.0, 2-(4-Chlorophenyl)-N-(5-(thiophen-2-yl)-4-(2-(trifluoromethyl)phenyl)-4H-1,2,4-triazol-3-yl)ethanesulfonamide] to `COc1cccc(OC)c1-n1c(NS(=O)(=O)[C@@H](C)[C@H](OC)c2ncc(C)cn2)nnc1-c1cnn2ccc(C)cc12` [Example 416.0, (1R,2S)-N-(4-(2,6-dimethoxyphenyl)-5-(5-methylpyrazolo[1,5-a]pyridin-3-yl)-4H-1,2,4-triazol-3-yl)-1-methoxy-1-(5-methylpyrimidin-2-yl)propane-2-sulfonamide], the EC50 falls from over 12500 nM to 8.4 nM. The second is the more potent here.

Compared with `COc1ncnc(OC)c1-n1c(NS(=O)(=O)[C@@H](C)[C@H](OC)c2ncc(Cl)cn2)nnc1-c1ccn(C)n1` [Example 450.0, (1R,2S)-1-(5-chloro-2-pyrimidinyl)-N-(4-(4,6-dimethoxy-5-pyrimidinyl)-5-(1-methyl-1H-pyrazol-3-yl)-4H-1,2,4-triazol-3-yl)-1-methoxy-2-propanesulfonamide], `COc1cccc(OC)c1-n1c(NS(=O)(=O)[C@@H](C)[C@H](C)c2ncc(F)cn2)nnc1-c1cncc(C)n1` [Example 209.0, (2S,3R)-N-(4-(2,6-dimethoxyphenyl)-5-(6-methyl-2-pyrazinyl)-4H-1,2,4-triazol-3-yl)-3-(5-fluoro-2-pyrimidinyl)-2-butanesulfonamide] is 1.9-fold higher in EC50: 0.81 nM for the first, 1.5 nM for the second.

`C[C@H](c1ncc(Cl)cn1)[C@H](C)S(=O)(=O)Nc1nnc(-c2ccn(C)n2)n1-c1c(F)cccc1F` [Example 228.0, (2S,3R)-3-(5-chloro-2-pyrimidinyl)-N-(4-(2,6-difluorophenyl)-5-(1-methyl-1H-pyrazol-3-yl)-4H-1,2,4-triazol-3-yl)-2-butanesulfonamide] and `COc1cccc(OC)c1-n1c(NS(=O)(=O)[C@@H]2CCCN(c3ncc(F)cn3)C2)nnc1-c1ccn(C)n1` (single isomer, unassigned) [Example 262.0, (3R)-N-(4-(2,6-dimethoxyphenyl)-5-(1-methyl-1H-pyrazol-3-yl)-4H-1,2,4-triazol-3-yl)-1-(5-fluoro-2-pyrimidinyl)-3-piperidinesulfonamide or (3S)-N-(4-(2,6-dimethoxyphenyl)-5-(1-methyl-1H-pyrazol-3-yl)-4H-1,2,4-triazol-3-yl)-1-(5-fluoro-2-pyrimidinyl)-3-piperidinesulfonamide] are within 1.5-fold of each other in EC50: 4 nM for the first, 4.8 nM for the second.

First: COc1cccc(OC)c1-n1c(NS(=O)(=O)[C@@H](C)[C@H](C)c2ncc(Cl)cn2)nnc1-c1n[nH]c2c1CCCC2 [Example 438.0, (2S,3R)-3-(5-chloropyrimidin-2-yl)-N-(4-(2,6-dimethoxyphenyl)-5-(4,5,6,7-tetrahydro-1H-indazol-3-yl)-4H-1,2,4-triazol-3-yl)butane-2-sulfonamide]
Second: (2R,3R)-3-(5-Cyanopyrimidin-2-yl)-N-(4-(2,6-dimethoxyphenyl)-5-(4-methylthiazol-2-yl)-4H-1,2,4-triazol-3-yl)-3-fluorobutane-2-sulfonamide and (2S,3S)-3-(5-cyanopyrimidin-2-yl)-N-(4-(2,6-dimethoxyphenyl)-5-(4-methylthiazol-2-yl)-4H-1,2,4-triazol-3-yl)-3-fluorobutane-2-sulfonamide [Example 321.0]
The EC50 of the first is 5.7-fold higher: 9.1 nM for the first, 1.6 nM for the second. The second is the more potent here.
